Measurements from patent US10351591B2, “Polypeptides, peptides, and proteins functionalized by alkylation of thioether groups via ring-opening reactions” (The Regents of the University of California, priority 2015, dated 2019).

Key:
[1] = potent nucleophile 2-mercaptopyridine; 37° C., 24 h
[2] = Poly(S-alkyl-L-methionine) stability studies in aqueous buffers; format: physicochemical; conditions: aqueous buffers ranging in pH from 5 to 9; 37° C., 24 h; S-alkyl-Met/Met ratio by 1H NMR
Description: The mixture was incubated on a 37° C. H2O bath for 24 h. […] The retentate was lyophilized.

Poly(S-(3-azido-2-hydroxypropyl)-L-methionine sulfonium chloride) [compound 4]
stability against dealkylation by nucleophile [1]: quite stable
stability in aqueous buffers [2]: good stability
